Assay results taken from US12084436B2, “Heterocyclic compound” (Takeda Pharmaceutical Company Limited, priority 2019, dated 2024).

The molecules below were run against T1, HDAC6 enzyme (Homo sapiens, UniProt Q9UBN7) (assay: HDAC6 enzyme inhibitory assay (HDAC-Glo I/II Assay kit, luminescence)). Conditions: 10 μM test compound; wells without enzyme = 100% inhibition; read-out: HDAC6 inhibitory rate (%) (10 μM).
T1 construct: prepared by transducing full length HDAC6 gene into Sf-9 insect cells; GST; purchased SignalChem; host or cells: Sf-9 insect cells
T1 sequence (Q9UBN7 1-1215): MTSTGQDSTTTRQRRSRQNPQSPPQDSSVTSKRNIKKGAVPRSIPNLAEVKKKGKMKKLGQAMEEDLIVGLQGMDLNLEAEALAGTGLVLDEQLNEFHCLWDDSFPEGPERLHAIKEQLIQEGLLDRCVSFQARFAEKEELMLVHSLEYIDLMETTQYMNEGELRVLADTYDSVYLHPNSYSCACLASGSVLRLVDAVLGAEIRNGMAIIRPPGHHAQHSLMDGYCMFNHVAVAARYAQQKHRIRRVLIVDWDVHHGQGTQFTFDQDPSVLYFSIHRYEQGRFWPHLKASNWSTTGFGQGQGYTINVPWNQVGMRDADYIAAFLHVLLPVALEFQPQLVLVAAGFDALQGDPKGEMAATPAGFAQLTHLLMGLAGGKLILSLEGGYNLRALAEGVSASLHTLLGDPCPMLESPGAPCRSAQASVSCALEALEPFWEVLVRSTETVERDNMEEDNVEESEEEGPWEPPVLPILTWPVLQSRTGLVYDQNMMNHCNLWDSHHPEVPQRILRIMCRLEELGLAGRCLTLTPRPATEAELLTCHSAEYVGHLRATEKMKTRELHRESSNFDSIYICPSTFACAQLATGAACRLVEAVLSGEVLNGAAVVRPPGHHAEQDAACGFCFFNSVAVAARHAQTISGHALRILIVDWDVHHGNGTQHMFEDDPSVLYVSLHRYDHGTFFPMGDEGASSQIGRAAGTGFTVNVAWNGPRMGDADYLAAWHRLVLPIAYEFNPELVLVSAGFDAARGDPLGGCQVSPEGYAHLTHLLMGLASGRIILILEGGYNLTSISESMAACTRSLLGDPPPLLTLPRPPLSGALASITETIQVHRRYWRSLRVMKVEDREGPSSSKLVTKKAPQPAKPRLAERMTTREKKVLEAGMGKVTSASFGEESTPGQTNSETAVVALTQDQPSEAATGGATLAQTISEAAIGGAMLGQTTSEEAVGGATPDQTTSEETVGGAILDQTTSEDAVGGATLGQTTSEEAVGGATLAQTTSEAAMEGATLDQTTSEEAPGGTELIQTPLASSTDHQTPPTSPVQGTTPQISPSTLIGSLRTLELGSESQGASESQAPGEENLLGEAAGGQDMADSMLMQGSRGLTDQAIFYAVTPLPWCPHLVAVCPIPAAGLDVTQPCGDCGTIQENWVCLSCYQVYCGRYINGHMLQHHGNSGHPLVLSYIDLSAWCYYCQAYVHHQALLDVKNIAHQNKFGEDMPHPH
Format: biochemical
Procedure, shortened: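 Full-length human HDAC6, GST-purified from Sf-9 cells, was preincubated with compound for 60 min at room temperature in Tris-HCl pH 7.5 buffer with glutathione and Tween-20. Substrate-developer was then added, and luminescence was read after 20 min at room temperature. Inhibition was expressed relative to no-enzyme wells, taken as 100% inhibition.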

SMILES | inhibition at 10 µM [%]
Cc1nnc(Cn2ccnc2-c2cc(F)cc(-c3nnc(C(F)F)o3)c2)o1 [Example 54a, 2-(difluoromethyl)-5-(3-fluoro-5-{1-[(5-methyl-1,3,4-oxadiazol-2-yl)methyl]-1H-imidazol-2-yl}phenyl)-1,3,4-oxadiazole] | 89
Cc1nc(Cn2ccnc2-c2cc(F)cc(-c3nnc(C(F)F)o3)c2)no1 [Example 55a, 3-[(2-{3-[5-(difluoromethyl)-1,3,4-oxadiazol-2-yl]-5-fluorophenyl}-1H-imidazol-1-yl)methyl]-5-methyl-1,2,4-oxadiazole] | 97
Cc1noc(Cn2ccnc2-c2cc(F)cc(-c3nnc(C(F)F)o3)c2)n1 [Example 56a, 5-[(2-{3-[5-(difluoromethyl)-1,3,4-oxadiazol-2-yl]-5-fluorophenyl}-1H-imidazol-1-yl)methyl]-3-methyl-1,2,4-oxadiazole] | 99
CC1(c2ccc(F)cc2)Oc2ccc(-c3nnc(C(F)F)o3)cc2C(=O)N1CC(F)F (stereo not shown) [Example 56b, 3-(2,2-difluoroethyl)-6-[5-(difluoromethyl)-1,3,4-oxadiazol-2-yl]-2-(4-fluorophenyl)-2-methyl-2,3-dihydro-4H-1,3-benzoxazin-4-one] | 100
Cc1nc(Cn2ccnc2-c2cc(F)cc(-c3nnc(C(F)F)o3)c2)co1 [Example 57a, 2-(difluoromethyl)-5-(3-fluoro-5-{1-[(2-methyl-1,3-oxazol-4-yl)methyl]-1H-imidazol-2-yl}phenyl)-1,3,4-oxadiazole] | 97
COc1cncc(Cn2ccnc2-c2cc(F)cc(-c3nnc(C(F)F)o3)c2)n1 [Example 58a, 2-[(2-{3-[5-(difluoromethyl)-1,3,4-oxadiazol-2-yl]-5-fluorophenyl}-1H-imidazol-1-yl)methyl]-6-methoxypyrazine] | 98
Cn1cc(Cn2ccnc2-c2cc(F)cc(-c3nnc(C(F)F)o3)c2)cn1 [Example 59a, 2-(difluoromethyl)-5-(3-fluoro-5-{1-[(1-methyl-1H-pyrazol-4-yl)methyl]-1H-imidazol-2-yl}phenyl)-1,3,4-oxadiazole] | 99
Fc1cc(-c2nnc(C(F)F)o2)cc(-c2nccn2Cc2cscn2)c1 [Example 60a, 2-(difluoromethyl)-5-(3-fluoro-5-{1-[(1,3-thiazol-4-yl)methyl]-1H-imidazol-2-yl}phenyl)-1,3,4-oxadiazole] | 98
Cc1cc(Cn2ccnc2-c2cc(F)cc(-c3nnc(C(F)F)o3)c2)no1 [Example 61a, 2-(difluoromethyl)-5-(3-fluoro-5-{1-[(5-methyl-1,2-oxazol-3-yl)methyl]-1H-imidazol-2-yl}phenyl)-1,3,4-oxadiazole] | 98
Cc1cc(Cn2ccnc2-c2cc(F)cc(-c3nnc(C(F)F)o3)c2)on1 [Example 62a, 2-(difluoromethyl)-5-(3-fluoro-5-{1-[(3-methyl-1,2-oxazol-5-yl)methyl]-1H-imidazol-2-yl}phenyl)-1,3,4-oxadiazole] | 99
Cc1nn(C)cc1Cn1ccnc1-c1cc(F)cc(-c2nnc(C(F)F)o2)c1 [Example 63a, 2-(difluoromethyl)-5-(3-{1-[(1,3-dimethyl-1H-pyrazol-4-yl)methyl]-1H-imidazol-2-yl}-5-fluorophenyl)-1,3,4-oxadiazole] | 97
Cc1cc(Cn2ccnc2-c2cc(F)cc(-c3nnc(C(F)F)o3)c2)n(C)n1 [Example 64a, 2-(difluoromethyl)-5-(3-{1-[(1,3-dimethyl-1H-pyrazol-5-yl)methyl]-1H-imidazol-2-yl}-5-fluorophenyl)-1,3,4-oxadiazole] | 98

More lines, now with the values ahead:

inhibition at 10 µM [%] | SMILES
101 | CN(Cc1cccc(-c2cnccn2)c1)N1Cc2ccc(-c3nnc(C(F)F)o3)cc2C1=O [Example 53c, 6-[5-(difluoromethyl)-1,3,4-oxadiazol-2-yl]-2-(methyl{[3-(pyrazin-2-yl)phenyl]methyl}amino)-2,3-dihydro-1H-isoindol-1-one]
75 | C[C@@]1(c2ccc(F)cc2)Cc2ncc(-c3nnc(C(F)F)o3)cc2C(=O)N1CC(F)F [Example 54b, (7S)-6-(2,2-difluoroethyl)-3-[5-(difluoromethyl)-1,3,4-oxadiazol-2-yl]-7-(4-fluorophenyl)-7-methyl-7,8-dihydro-1,6-naphthyridin-5(6H)-one]
97 | CN(C)c1ccc(CN(C)N2Cc3ccc(-c4nnc(C(F)F)o4)cc3C2=O)cc1 [Example 54c, 6-[5-(difluoromethyl)-1,3,4-oxadiazol-2-yl]-2-[{[4-(dimethylamino)phenyl]methyl} (methyl)amino]-2,3-dihydro-1H-isoindol-1-one]
100 | C[C@]1(c2ccc(F)cc2)Cc2ncc(-c3nnc(C(F)F)o3)cc2C(=O)N1CC(F)F [Example 55b, (7R)-6-(2,2-difluoroethyl)-3-[5-(difluoromethyl)-1,3,4-oxadiazol-2-yl]-7-(4-fluorophenyl)-7-methyl-7,8-dihydro-1,6-naphthyridin-5(6H)-one]
101 | COCCOc1ccc(CN(C)N2Cc3ccc(-c4nnc(C(F)F)o4)cc3C2=O)cc1 [Example 55c, 6-[5-(difluoromethyl)-1,3,4-oxadiazol-2-yl]-2-[{[4-(2-methoxyethoxy)phenyl]methyl} (methyl)amino]-2,3-dihydro-1H-isoindol-1-one]
99 | CN(Cc1cccc(C(F)F)c1)N1Cc2ccc(-c3nnc(C(F)F)o3)cc2C1=O [Example 56c, 6-[5-(difluoromethyl)-1,3,4-oxadiazol-2-yl]-2-[{[3-(difluoromethyl)phenyl]methyl} (methyl)amino]-2,3-dihydro-1H-isoindol-1-one]
99 | CN(Cc1ccc(C(F)F)cc1)N1Cc2ccc(-c3nnc(C(F)F)o3)cc2C1=O [Example 57c, 6-[5-(difluoromethyl)-1,3,4-oxadiazol-2-yl]-2-[{[4-(difluoromethyl)phenyl]methyl} (methyl)amino]-2,3-dihydro-1H-isoindol-1-one]
100 | CN(Cc1ccccc1N1CCOCC1)N1Cc2ccc(-c3nnc(C(F)F)o3)cc2C1=O [Example 58c, 6-[5-(difluoromethyl)-1,3,4-oxadiazol-2-yl]-2-(methyl{[2-(morpholin-4-yl)phenyl]methyl}amino)-2,3-dihydro-1H-isoindol-1-one]
101 | CN(Cc1ccccc1Oc1cnccn1)N1Cc2ccc(-c3nnc(C(F)F)o3)cc2C1=O [Example 59c, 6-[5-(difluoromethyl)-1,3,4-oxadiazol-2-yl]-2-[methyl({2-[(pyrazin-2-yl)oxy]phenyl}methyl)amino]-2,3-dihydro-1H-isoindol-1-one]
101 | CN(Cc1cncc(Cl)c1)N1Cc2ccc(-c3nnc(C(F)F)o3)cc2C1=O [Example 60c, 2-{[(5-chloropyridin-3-yl)methyl] (methyl)amino}-6-[5-(difluoromethyl)-1,3,4-oxadiazol-2-yl]-2,3-dihydro-1H-isoindol-1-one]
99 | CN(Cc1cccc(N2CCOCC2)c1)N1Cc2ccc(-c3nnc(C(F)F)o3)cc2C1=O [Example 61c, 6-[5-(difluoromethyl)-1,3,4-oxadiazol-2-yl]-2-(methyl{[3-(morpholin-4-yl)phenyl]methyl}amino)-2,3-dihydro-1H-isoindol-1-one]
100 | CN(CC1CCC(F)(F)CC1)N1Cc2ccc(-c3nnc(C(F)F)o3)cc2C1=O [Example 62c, 2-{[(4,4-difluorocyclohexyl)methyl](methyl)amino}-6-[5-(difluoromethyl)-1,3,4-oxadiazol-2-yl]-2,3-dihydro-1H-isoindol-1-one]
101 | COc1cc(CN(C)N2Cc3ccc(-c4nnc(C(F)F)o4)cc3C2=O)cc(OC)c1 [Example 63c, 6-[5-(difluoromethyl)-1,3,4-oxadiazol-2-yl]-2-{[(3,5-dimethoxyphenyl)methyl](methyl)amino}-2,3-dihydro-1H-isoindol-1-one]
